{"source": "patent US12152083B2", "about": "(priority 2014, dated 2024)", "key": {"[1]": {"tested_on": "Human T-cell leukemia cell line Jurkat", "experiment": "Cellular cytotoxicity of compounds, Example 3.1 (CellTiter-Glo)", "assay_type": "cell-based", "settings": "three nights", "description": "(§1) Compounds were tested on one or more of Human T-cell leukemia cell line Jurkat (ATCC: TIB-152); Human breast cancer cell lines HCC1954 (ATCC: CRL-2338) and JIMT-1 (DSMZ: ACC 589); Human Pancreatic cell line BxPC-3 (ATCC: CRL.1687), Human ovarian adenocarcinoma cell line SK-OV-3 (ATCC: HTB-77) and Human gastric carcinoma cell line NCI-N87 (ATCC: CRL. 5822); to assess their cytotoxicity.\n(§2) Briefly, cells were obtained from commercial sources and cultured as described in the product sheet provided. Cells were removed from their culture vessels and the resulting cell suspension was counted using a ViCell (Beckman Coulter), then seeded at 25,000 cells/mL (2,500 cells/well) in Costar 3904 black walled, flat bottomed 96-well plates (cells were seeded in the inner 60 wells of 96-well TC plates, and outer edge wells filled with water). Adherent cell lines were incubated for one night at 37° C./5% CO2 atmosphere to allow the cells to attach to the microtiter plate surface, while suspension (Jurkat) cells were plated immediately before use. Cytotoxins were dissolved and serially diluted in dimethyl sulfoxide and then the solutions were added to complete growth medium at five-times the desired maximum final concentration. The cytotoxins were then titrated in growth medium, normally 1:3, over eight steps. A control with no test article present (growth medium alone) was included on each microtiter plate in sextuplicate. The prepared toxin titrations were added (25 μL/well) in triplicate to each cell line assayed. […] After the incubation, cell viability was measured using CellTiter-Glo® by adding 30 μL of prepared CellTiter-Glo® reagent to each assay well. The mixtures were incubated for at least twenty minutes in the dark prior to measuring emitted luminescence using a microplate luminometer (500 ms integration time). The collected relative luminescence units (RLU) were converted to % cytotoxicity using the growth medium alone control mentioned above (% Cytotoxicity=1−[well RLU/average medium alone control RLU]×[…])."}, "[2]": {"tested_on": "Human gastric carcinoma cell line NCI-N87", "experiment": "Cellular cytotoxicity of compounds, Example 3.1 (CellTiter-Glo)", "assay_type": "cell-based", "settings": "five nights", "description": "as §1, §2"}, "[3]": {"tested_on": "Human Pancreatic cell line BxPC-3", "experiment": "Cellular cytotoxicity of compounds, Example 3.1 (CellTiter-Glo)", "assay_type": "cell-based", "settings": "five nights", "description": "as §1, §2"}, "Jurkat cell line": {"tested_on": "Jurkat cell line", "experiment": "Cytotoxicity of compounds, Example 3 (CellTiter-Glo, 3 days)", "assay_type": "cell-based, Human", "settings": "titrated 1:3 starting with 30 nM", "description": "Compounds were tested on Jurkat and HCC1954 cell lines to assess their cytotoxicity. Compounds were titrated 1:3 starting at various concentrations (30 nM to 1000 nM). Control cytotoxin HTI-286 (see, e.g., U.S. Pat. No. 7,579,323) was also titrated 1:3 across starting with a 30 nM concentration. Plates were incubated for 3 days. Cell viability was quantified using 30 μL/well of 1× CellTiter-Glo reagent.\nEach cell line was grown in its respective growth medium until seeding day. Cells were removed from their culture vessels and the resulting cell suspension was counted using the ViCell. Cells were then diluted in their growth medium to 25000/mL such that 100 μL/well=2500 cells/well. Each cell line was seeded in the inner 60 wells of 96-well black walled TC plates, outer wells filled with water. HCC1954 were seeded a day prior to assay set up. Cytotoxins were diluted as described below a 5× dose-response of each compound was prepared using RPMI+10% FBS in a deep-well 96-well plate. This “master” dilution plate was used for each cell line. 25 μL of the 5× dose responses was spiked into each cell line in triplicate. The plates were returned to the incubator and were incubated for 3 nights. After the 3 nights, cell viability was quantified using 30 μL/well of 1× CellTiter-glo reagent. After at least 10 minutes of incubation, the luminescence was measured using the SpectraMax (500 ms integration)."}, "[4]": {"tested_on": "Jurkat, HCC1954, NCI-N87, BxPC-3, SK-OV-3, and JIMT-1 Cell Lines", "experiment": "Cellular cytotoxicity, Example 3.1, control cytotoxin on all cell lines", "assay_type": "cell-based, Human", "settings": "Example 3.1 cell lines", "description": "as §1\nBriefly, cells were obtained from commercial sources and cultured as described in the product sheet provided. Cells were removed from their culture vessels and the resulting cell suspension was counted using a ViCell (Beckman Coulter), then seeded at 25,000 cells/mL (2,500 cells/well) in Costar 3904 black walled, flat bottomed 96-well plates (cells were seeded in the inner 60 wells of 96-well TC plates, and outer edge wells filled with water). […] After the incubation, cell viability was measured using CellTiter-Glo® by adding 30 μL of prepared CellTiter-Glo® reagent to each assay well. The mixtures were incubated for at least twenty minutes in the dark prior to measuring emitted luminescence using a microplate luminometer (500 ms integration time). The collected relative luminescence units (RLU) were converted to % cytotoxicity using the growth medium alone control mentioned above (% Cytotoxicity=1−[well RLU/average medium alone control RLU]×[…])."}, "Jurkat cells": {"tested_on": "Jurkat cells", "experiment": "Cell cycle arrest assay", "assay_type": "cell-based", "settings": "50 nM, 24 h, propidium iodide", "description": "Jurkat cells (ATCC), cultured in RMPI-1640 media supplemented with 10% FBS, were obtained in logarithmic growth. 1 million cells/ml were seeded into a 12-well tissue-culture treated plate in a 950 μL volume. Cells were treated with Compound 5 in 50 μL of growth media such that the final concentration of Compound 5 was 50 nM, control cells were given 50 μL of growth media alone. Cells were incubated for 24 h at 37° C., 5% CO2 in a humidified incubator. Following incubation, cells were thoroughly resuspended and transferred to 5 mL FACS tubes, and stored on ice. Two washes were performed by spinning cells down in a swinging-bucket centrifuge at 450×g for 4 min, resuspending in 1 mL ice-cold PBS. Cells were fixed through the addition of 3 mL ice-cold 100% ethanol in a dropwise fashion under vortex, and immediately stored at 4° C. for 1 h. During the 1 h incubation, the following staining solution was prepared in ice-cold PBS: 10 μg/ml propidium iodide, 10 U/ml RNAse 1f, and 0.05% Triton X-100. Following the 1 h fixation incubation, ethanol was removed by spinning cells as described above, and washing twice in 1 mL ice-cold PBS. Cells were resuspended in 500 μL of the above-mentioned staining solution, and incubated at room temperature for 1 h. […] Histograms were generated using FCS Express, plotting # of events against fluorescence in FL-3."}}}
{"smiles": "CC[C@H](C)[C@@H]([C@@H](CC(=O)N1CCC[C@H]1[C@H](OC)[C@@H](C)C(=O)NS(=O)(=O)c1ccc(NC(=O)C(F)(F)F)cc1)OC)N(C)C(=O)[C@@H](NC(=O)[C@@H](NC)C(C)(C)c1ccccc1)C(C)C", "note": "[Compound 18]", "values": [{"measurement": "EC50", "setting": "[1]", "value": 1.5, "unit": "nM"}, {"measurement": "EC50", "setting": "[2]", "value": 0.9, "unit": "nM"}, {"measurement": "EC50", "setting": "[3]", "value": 2.3, "unit": "nM"}]}
{"smiles": "CN[C@H](C(=O)N[C@H](C(=O)N(C)[C@H](/C=C(\\C)C(=O)O)C(C)C)C(C)(C)C)C(C)(C)c1ccccc1", "note": "[HTI-286]", "values": [{"measurement": "killing of Jurkats by control cytotoxin", "setting": "Jurkat cell line", "value": "successfully killed Jurkats at an expected concentration"}, {"measurement": "killing of all cell lines by control cytotoxin", "setting": "[4]", "value": "successfully killed all cell lines at an expected concentration"}]}
{"smiles": "CC[C@H](C)[C@@H]([C@@H](CC(=O)N1CCC[C@H]1[C@H](OC)[C@@H](C)C(=O)NS(=O)(=O)c1ccc(N)cc1)OC)N(C)C(=O)[C@@H](NC(=O)[C@H](C(C)C)N(C)C)C(C)C", "note": "[Compound 5, (S)—N-((3R,4S,5S)-1-((S)-2-((1R,2R)-3-(4-Aminophenylsulfonamido)-1-methoxy-2-methyl-3-oxopropyl)pyrrolidin-1-yl)-3-methoxy-5-methyl-1-oxoheptan-4-yl)-2-((S)-2-(dimethylamino)-3-methylbutanamido)-N,3-dimethylbutanamide]", "values": [{"measurement": "DNA content histograms, cell cycle phase", "setting": "Jurkat cells", "value": "pronounced shift towards G2/M phase of the cell cycle"}]}
